Results: patent publication US8247211B2, “Glycopeptide antibiotics” (American Cyanamid Company, priority 2001, dated 2012)
Values after ≈ are worked out from the molar mass of the structure shown.

Legend:
Assay in all cases: In vitro antibacterial evaluation: minimum inhibitory concentration (MIC), broth dilution method
Format in all cases: cell-based
Streptococcus sp. = conditions: 18 hours at 35° C.
Procedure, shortened: (§1)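 MIC read as lowest drug level preventing visible growth. Organisms at 5×10^5 CFU/mL were exposed to a 64-0.06 μg/mL dilution series in Muller-Hinton II […] following NCCLS broth dilution standard M7-A2.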

Escherichia coli = conditions: 18 hours at 35° C.
Procedure, shortened: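 Susceptibility determined by NCCLS-recommended broth dilution (M7-A2), Muller-Hinton II […]. Concentration span 64-0.06 μg/mL, inoculum 5×10^5 CFU/mL. Isolates include strains resistant to methicillin, penicillin and/or vancomycin.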

Staphylococcus sp. = tested on: Staphylococcus sp.
Procedure, shortened: as §1

Enterococcus sp. = conditions: 18 hours at 35° C.
Procedure, shortened: as §1

[1] = broth dilution, inoculum 5×10^5 CFU/mL

CC(c1ccccc1)C1NC(=O)CNC(=O)C(CO)NC(=O)C(C(O)C2CNC(=N)N2C2OC(CO)C(O)C(O)C2O)NC(=O)C(C(O)C2CNC(=N)N2)NC(=O)C(Cc2ccc(OC3OC(CO)C(OC4OC5COC6(CCC(C(C)(C)C)CC6)OC5C(O)C4O)C(O)C3O)cc2)NC1=O (stereo not drawn) [Example 208, Cyclo[glycyl-β-methylphenylalanyl-O-[4-O-[4,6-O-(4-tert, butylcyclohexylidene)hexopyranosyl]hexopyranosyl]tyrosyl-3-(2-iminoimidazolidin-4-yl)seryl-3-(3-hexopyranosyl-2-iminoimidazolidin-4-yl)serylseryl]] was tested, and the “MIC Streptococcus agalactiae (GC 4564)” value (Streptococcus sp.; Streptococcus agalactiae (GC 4564)) was 0.12 µg/mL (≈ 0.0838 µM), the “MIC Streptococcus pneumoniae (ATCC 6301)” value (Streptococcus sp.; Streptococcus pneumoniae (ATCC 6301)) was less than 0.06 µg/mL and the “MIC Streptococcus pneumoniae (GC 1894)” value (Streptococcus sp.; Streptococcus pneumoniae (GC 1894)) was less than 0.06 µg/mL. For the same compound, the “MIC Streptococcus pneumoniae (GC 4565)” value (Streptococcus sp.; Streptococcus pneumoniae (GC 4565)) was less than 0.06 µg/mL, the “MIC Streptococcus pyogenes (GC 4563)” value (Streptococcus sp.; Streptococcus pyogenes (GC 4563)) was 0.12 µg/mL (≈ 0.0838 µM) and the “MIC Streptococcus agalactiae (GC 4564)” value (Streptococcus sp.; [1]) was 0.12 µg/mL (≈ 0.0838 µM). The “MIC Streptococcus pneumoniae (ATCC 6301)” value (Streptococcus sp.; [1]) was less than 0.06 µg/mL, the “MIC Streptococcus pneumoniae (GC 1894)” value (Streptococcus sp.; [1]) was less than 0.06 µg/mL and the “MIC Streptococcus pneumoniae (GC 4565)” value (Streptococcus sp.; [1]) was less than 0.06 µg/mL. For the same compound, the “MIC Streptococcus pyogenes (GC 4563)” value (Streptococcus sp.; [1]) was 0.12 µg/mL (≈ 0.0838 µM), the “MIC Escherichia coli (ATCC 25922)” value (Escherichia coli; Escherichia coli (ATCC 25922)) was 64 µg/mL (≈ 44.7 µM) and the “MIC Escherichia coli (GC 4559)” value (Escherichia coli; Escherichia coli (GC 4559)) was greater than 64 µg/mL. The “MIC Escherichia coli (GC 4560)” value (Escherichia coli; Escherichia coli (GC 4560)) was 8 µg/mL (≈ 5.59 µM), the “MIC Staphylococcus aureus (ATCC 29213)” value (Staphylococcus sp.; strain ATCC 29213) was 4 µg/mL (≈ 2.79 µM) and the “MIC Staphylococcus aureus (GC 1131)” value (Staphylococcus sp.; strain GC 1131) was 8 µg/mL (≈ 5.59 µM). For the same compound, the “MIC Staphylococcus aureus (GC 3051)” value (Staphylococcus sp.; strain GC 3051) was 4 µg/mL (≈ 2.79 µM), the “MIC Staphylococcus aureus (GC 3053)” value (Staphylococcus sp.; strain GC 3053) was 4 µg/mL (≈ 2.79 µM) and the “MIC Staphylococcus aureus (GC 4541)” value (Staphylococcus sp.; strain GC 4541) was 8 µg/mL (≈ 5.59 µM). The “MIC Staphylococcus aureus (GC 4542)” value (Staphylococcus sp.; strain GC 4542) was 4 µg/mL (≈ 2.79 µM), the “MIC Staphylococcus aureus-SMITH (GC 4543)” value (Staphylococcus sp.; strain GC 4543) was 4 µg/mL (≈ 2.79 µM) and the “MIC Staphylococcus aureus (GC 4544)” value (Staphylococcus sp.; strain GC 4544) was 8 µg/mL (≈ 5.59 µM). For the same compound, the “MIC Staphylococcus aureus (GC 4545)” value (Staphylococcus sp.; strain GC 4545) was 4 µg/mL (≈ 2.79 µM), the “MIC Staphylococcus haemolyticus (GC 4546)” value (Staphylococcus sp.; strain GC 4546) was 4 µg/mL (≈ 2.79 µM) and the “MIC Coagulase Negative Staphylococcus (GC 4547)” value (Staphylococcus sp.; strain GC 4547) was 4 µg/mL (≈ 2.79 µM). The “MIC Coagulase Negative Staphylococcus (GC 4548)” value (Staphylococcus sp.; strain GC 4548) was 4 µg/mL (≈ 2.79 µM), the “MIC Coagulase Negative Staphylococcus (GC 4549)” value (Staphylococcus sp.; strain GC 4549) was 4 µg/mL (≈ 2.79 µM) and the “MIC Coagulase Negative Staphylococcus (GC 4551)” value (Staphylococcus sp.; strain GC 4551) was 4 µg/mL (≈ 2.79 µM). For the same compound, the “MIC Coagulase Negative Staphylococcus (GC 6257)” value (Staphylococcus sp.; strain GC 6257) was 4 µg/mL (≈ 2.79 µM), the “MIC Enterococcus avium (GC 4558)” value (Enterococcus sp.; Enterococcus avium (GC 4558)) was 4 µg/mL (≈ 2.79 µM) and the “MIC Enterococcus faecalis (ATCC 29212)” value (Enterococcus sp.; Enterococcus faecalis (ATCC 29212)) was 8 µg/mL (≈ 5.59 µM). The “MIC Enterococcus faecalis (GC 2242)” value (Enterococcus sp.; Enterococcus faecalis (GC 2242)) was 8 µg/mL (≈ 5.59 µM), the “MIC Enterococcus faecalis (GC 2691)” value (Enterococcus sp.; Enterococcus faecalis (GC 2691)) was 8 µg/mL (≈ 5.59 µM) and the “MIC Enterococcus faecalis (GC 3059)” value (Enterococcus sp.; Enterococcus faecalis (GC 3059)) was 8 µg/mL (≈ 5.59 µM). For the same compound, the “MIC Enterococcus faecalis (GC 4552)” value (Enterococcus sp.; Enterococcus faecalis (GC 4552)) was 8 µg/mL (≈ 5.59 µM), the “MIC Enterococcus faecalis (GC 4553)” value (Enterococcus sp.; Enterococcus faecalis (GC 4553)) was 8 µg/mL (≈ 5.59 µM) and the “MIC Enterococcus faecalis (GC 4554)” value (Enterococcus sp.; Enterococcus faecalis (GC 4554)) was 8 µg/mL (≈ 5.59 µM). The “MIC Enterococcus faecalis (GC 6189)” value (Enterococcus sp.; Enterococcus faecalis (GC 6189)) was 8 µg/mL (≈ 5.59 µM), the “MIC Enterococcus faecium (GC 2243)” value (Enterococcus sp.; Enterococcus faecium (GC 2243)) was 8 µg/mL (≈ 5.59 µM) and the “MIC Enterococcus faecium (GC 4556)” value (Enterococcus sp.; Enterococcus faecium (GC 4556)) was 8 µg/mL (≈ 5.59 µM). The “MIC Enterococcus faecium (GC 4557)” value (Enterococcus sp.; Enterococcus faecium (GC 4557)) was 8 µg/mL (≈ 5.59 µM), the “MIC Enterococcus avium (GC 4558)” value (Enterococcus sp.; [1]) was 4 µg/mL (≈ 2.79 µM) and the “MIC Enterococcus faecalis (ATCC 29212)” value (Enterococcus sp.; [1]) was 8 µg/mL (≈ 5.59 µM). For the same compound, the “MIC Enterococcus faecalis (GC 2242)” value (Enterococcus sp.; [1]) was 8 µg/mL (≈ 5.59 µM), the “MIC Enterococcus faecalis (GC 2691)” value (Enterococcus sp.; [1]) was 8 µg/mL (≈ 5.59 µM) and the “MIC Enterococcus faecalis (GC 3059)” value (Enterococcus sp.; [1]) was 8 µg/mL (≈ 5.59 µM). For the same compound, the “MIC Enterococcus faecalis (GC 4552)” value (Enterococcus sp.; [1]) was 8 µg/mL (≈ 5.59 µM), the “MIC Enterococcus faecalis (GC 4553)” value (Enterococcus sp.; [1]) was 8 µg/mL (≈ 5.59 µM) and the “MIC Enterococcus faecalis (GC 4554)” value (Enterococcus sp.; [1]) was 8 µg/mL (≈ 5.59 µM). The “MIC Enterococcus faecalis (GC 6189)” value (Enterococcus sp.; [1]) was 8 µg/mL (≈ 5.59 µM), the “MIC Enterococcus faecium (GC 2243)” value (Enterococcus sp.; [1]) was 8 µg/mL (≈ 5.59 µM) and the “MIC Enterococcus faecium (GC 4556)” value (Enterococcus sp.; [1]) was 8 µg/mL (≈ 5.59 µM). For the same compound, the “MIC Enterococcus faecium (GC 4557)” value (Enterococcus sp.; [1]) was 8 µg/mL (≈ 5.59 µM).
